Data from ChEMBL document CHEMBL5625170, “Design, synthesis, and biological evaluation of novel penindolone derivatives as potential inhibitors of hemagglutinin-mediated membrane fusion” (Eur J Med Chem, 2023).

Assays:
[1] = Cytotoxicity against dog MDCK cells assessed as cell viability measured after 48 hrs by MTT assay; type: toxicity, cell-based, Canis lupus familiaris
[2] = Selectivity index, ratio of CC50 for cytotoxicity against dog MDCK cells to IC50 for anti-viral activity against Influenza A virus (A/Puerto Rico/8/34 infected in MDCK cells; type: toxicity, cell-based; conditions: read-out: Selectivity Index

SMILES	CC50 at 48 h [1] [µM]	selectivity ratio [2]
CC(=O)c1cc(C)c(O)c(Cc2[nH]c3ccc(-c4ccc5c(c4)OCCO5)cc3c2Cc2c(O)c(C)cc(C(C)=O)c2O)c1O	> 300	> 23.1
CC(=O)c1cc(C)c(O)c(Cc2[nH]c3ccc(-c4c5ccccc5c(-c5ccccc5)c5ccccc45)cc3c2Cc2c(O)c(C)cc(C(C)=O)c2O)c1O	> 300	–
CC(=O)c1cc(C)c(O)c(Cc2c(Cc3c(O)c(C)cc(C(C)=O)c3O)n(N)c3ccccc23)c1O	> 300	–
CC(=O)c1cc(C)c(O)c(Cc2[nH]c3cc(-c4csc5ccccc45)ccc3c2Cc2c(O)c(C)cc(C(C)=O)c2O)c1O	> 300	> 14.4
CC(=O)c1cc(C)c(O)c(Cc2[nH]c3cc(-c4ccsc4)ccc3c2Cc2c(O)c(C)cc(C(C)=O)c2O)c1O	> 300	–
CC(=O)c1cc(C)c(O)c(Cc2[nH]c3ccc(-c4ccc5c(c4)CCO5)cc3c2Cc2c(O)c(C)cc(C(C)=O)c2O)c1O	> 300	–
C=CCn1c(Cc2c(O)c(C)cc(C(C)=O)c2O)c(Cc2c(O)c(C)cc(C(C)=O)c2O)c2ccccc21	> 300	–
CC(=O)c1cc(C)c(O)c(Cc2[nH]c3cc(-c4ccc(Cl)cc4)ccc3c2Cc2c(O)c(C)cc(C(C)=O)c2O)c1O	> 300	–
CC(=O)c1cc(C)c(O)c(Cc2[nH]c3ccc(-c4ccc(F)cc4)cc3c2Cc2c(O)c(C)cc(C(C)=O)c2O)c1O	212	–
CC(=O)c1cc(C)c(O)c(Cc2[nH]c3ccc(/C=C/c4ccccc4)cc3c2Cc2c(O)c(C)cc(C(C)=O)c2O)c1O	> 300	–
CC(=O)c1cc(C)c(O)c(Cc2c(Cc3c(O)c(C)cc(C(C)=O)c3O)n(Cc3ccc(Cl)cc3)c3ccccc23)c1O	> 300	–
CC(=O)c1cc(C)c(O)c(Cc2[nH]c3cc(-c4ccc(C)cc4)ccc3c2Cc2c(O)c(C)cc(C(C)=O)c2O)c1O	> 300	> 12.4
CC(=O)c1cc(C)c(O)c(Cc2[nH]c3cc(-c4ccc(F)cc4)ccc3c2Cc2c(O)c(C)cc(C(C)=O)c2O)c1O	256	13.4
CSc1ccc(-c2ccc3[nH]c(Cc4c(O)c(C)cc(C(C)=O)c4O)c(Cc4c(O)c(C)cc(C(C)=O)c4O)c3c2)cc1	> 300	> 17.1
CC(=O)c1cc(C)c(O)c(Cc2[nH]c3cc(-c4c5ccccc5cc5ccccc45)ccc3c2Cc2c(O)c(C)cc(C(C)=O)c2O)c1O	> 300	> 36.1
CC(=O)c1cc(C)c(O)c(Cc2[nH]c3cc(-c4ccc5ccccc5c4)ccc3c2Cc2c(O)c(C)cc(C(C)=O)c2O)c1O	> 300	> 11.5
CC(=O)c1cc(C)c(O)c(Cc2[nH]c3ccc(-c4ccsc4)cc3c2Cc2c(O)c(C)cc(C(C)=O)c2O)c1O	> 300	–
CC(=O)c1cc(C)c(O)c(Cc2[nH]c3cc(-c4ccc5c(c4)CCO5)ccc3c2Cc2c(O)c(C)cc(C(C)=O)c2O)c1O	> 300	–
CC(=O)c1cc(C)c(O)c(Cc2[nH]c3ccc(Cl)cc3c2Cc2c(O)c(C)cc(C(C)=O)c2O)c1O	> 300	–
CC(=O)c1cc(C)c(O)c(Cc2[nH]c3cc(-c4cc(C(C)(C)C)cc(C(C)(C)C)c4)ccc3c2Cc2c(O)c(C)cc(C(C)=O)c2O)c1O	280	10.4
CC(=O)c1cc(C)c(O)c(Cc2[nH]c3ccc(C)cc3c2Cc2c(O)c(C)cc(C(C)=O)c2O)c1O	> 300	> 14.6
COc1ccc(-c2ccc3[nH]c(Cc4c(O)c(C)cc(C(C)=O)c4O)c(Cc4c(O)c(C)cc(C(C)=O)c4O)c3c2)cc1	> 300	> 18.4
CC(=O)c1cc(C)c(O)c(Cc2[nH]c3ccc(-c4ccc(C)cc4)cc3c2Cc2c(O)c(C)cc(C(C)=O)c2O)c1O	> 300	> 19.4
COc1cccc(OC)c1-c1ccc2[nH]c(Cc3c(O)c(C)cc(C(C)=O)c3O)c(Cc3c(O)c(C)cc(C(C)=O)c3O)c2c1	271	12.9
CC(=O)c1cc(C)c(O)c(Cc2[nH]c3ccc(-c4ccc(C(F)(F)F)cc4)cc3c2Cc2c(O)c(C)cc(C(C)=O)c2O)c1O	> 300	> 13.7
CC(=O)c1cc(C)c(O)c(Cc2[nH]c3ccc(-c4ccc(Cl)cc4)cc3c2Cc2c(O)c(C)cc(C(C)=O)c2O)c1O	> 300	> 11.1
CC(=O)c1cc(C)c(O)c(Cc2[nH]c3ccc(-c4cccc(O)c4)cc3c2Cc2c(O)c(C)cc(C(C)=O)c2O)c1O	152	–
CC(=O)c1cc(C)c(O)c(Cc2[nH]c3ccc(-c4cc(C)cc(C)c4)cc3c2Cc2c(O)c(C)cc(C(C)=O)c2O)c1O	> 300	> 22.2

SMILES	CC50 at 48 h [1] [µM]	selectivity ratio [2]
CC(=O)c1cc(C)c(O)c(Cc2c(Cc3c(O)c(C)cc(C(C)=O)c3O)n(Cc3ccc(F)cc3)c3ccccc23)c1O	> 300	–
CC(=O)c1cc(C)c(O)c(Cc2[nH]c3ccc(-c4cc(C(C)(C)C)cc(C(C)(C)C)c4)cc3c2Cc2c(O)c(C)cc(C(C)=O)c2O)c1O	> 300	–
CC(=O)c1cc(C)c(O)c(Cc2[nH]c3cc(-c4ccc5c(c4)OCCO5)ccc3c2Cc2c(O)c(C)cc(C(C)=O)c2O)c1O	> 300	> 15.5
CC(=O)c1cc(C)c(O)c(Cc2[nH]c3cc(-c4cc(C)cc(C)c4)ccc3c2Cc2c(O)c(C)cc(C(C)=O)c2O)c1O	> 300	> 29.7
CC(=O)c1cc(C)c(O)c(Cc2[nH]c3cc(-c4ccc5cccnc5c4)ccc3c2Cc2c(O)c(C)cc(C(C)=O)c2O)c1O	> 300	–
CC(=O)c1cc(C)c(O)c(Cc2[nH]c3cc(-c4cccc(O)c4)ccc3c2Cc2c(O)c(C)cc(C(C)=O)c2O)c1O	126	–
CC(=O)c1cc(C)c(O)c(Cc2[nH]c3ccc(Br)cc3c2Cc2c(O)c(C)cc(C(C)=O)c2O)c1O	233	9.2
COc1cc(-c2ccc3c(Cc4c(O)c(C)cc(C(C)=O)c4O)c(Cc4c(O)c(C)cc(C(C)=O)c4O)[nH]c3c2)cc(OC)c1OC	> 300	> 14.9
COc1ccc2cc(-c3ccc4c(Cc5c(O)c(C)cc(C(C)=O)c5O)c(Cc5c(O)c(C)cc(C(C)=O)c5O)[nH]c4c3)ccc2c1	> 300	> 12.9
CC(=O)c1cc(C)c(O)c(Cc2[nH]c3ccc(-c4ccccc4F)cc3c2Cc2c(O)c(C)cc(C(C)=O)c2O)c1O	> 300	–
COc1ccc(Cn2c(Cc3c(O)c(C)cc(C(C)=O)c3O)c(Cc3c(O)c(C)cc(C(C)=O)c3O)c3ccccc32)cc1	> 300	–
CC(=O)c1cc(C)c(O)c(Cc2[nH]c3ccc(F)cc3c2Cc2c(O)c(C)cc(C(C)=O)c2O)c1O	281	–
CSc1ccc(-c2ccc3c(Cc4c(O)c(C)cc(C(C)=O)c4O)c(Cc4c(O)c(C)cc(C(C)=O)c4O)[nH]c3c2)cc1	> 300	> 33
CC(=O)c1cc(C)c(O)c(Cc2[nH]c3cc(-c4cccc(F)c4)ccc3c2Cc2c(O)c(C)cc(C(C)=O)c2O)c1O	> 300	–
COc1ccc(-c2ccc3c(Cc4c(O)c(C)cc(C(C)=O)c4O)c(Cc4c(O)c(C)cc(C(C)=O)c4O)[nH]c3c2)cc1	> 300	> 34.5
CC(=O)c1cc(C)c(O)c(Cc2[nH]c3cc(-c4c5ccccc5c(-c5ccccc5)c5ccccc45)ccc3c2Cc2c(O)c(C)cc(C(C)=O)c2O)c1O	> 300	–
COc1ccc2cc(-c3ccc4[nH]c(Cc5c(O)c(C)cc(C(C)=O)c5O)c(Cc5c(O)c(C)cc(C(C)=O)c5O)c4c3)ccc2c1	> 300	> 14.2
CC(=O)c1cc(C)c(O)c(Cc2[nH]c3ccc(-c4cccc(F)c4)cc3c2Cc2c(O)c(C)cc(C(C)=O)c2O)c1O	> 300	–
COc1ccc(-c2ccc3c(Cc4c(O)c(C)cc(C(C)=O)c4O)c(Cc4c(O)c(C)cc(C(C)=O)c4O)[nH]c3c2)cc1OC	240	12.2
COc1ccc2c(Cc3c(O)c(C)cc(C(C)=O)c3O)c(Cc3c(O)c(C)cc(C(C)=O)c3O)[nH]c2c1	> 300	> 23.8
CC(=O)c1cc(C)c(O)c(Cc2[nH]c3ccc(-c4ccc5ccccc5c4)cc3c2Cc2c(O)c(C)cc(C(C)=O)c2O)c1O	> 300	> 14.5
CC(=O)c1cc(C)c(O)c(Cc2c(Cc3c(O)c(C)cc(C(C)=O)c3O)n(Cc3ccccc3)c3ccccc23)c1O	> 300	–
COc1cc(-c2ccc3[nH]c(Cc4c(O)c(C)cc(C(C)=O)c4O)c(Cc4c(O)c(C)cc(C(C)=O)c4O)c3c2)cc(OC)c1OC	> 300	> 37.5
CC(=O)c1cc(C)c(O)c(Cc2[nH]c3ccc(-c4cc(C(F)(F)F)cc(C(F)(F)F)c4)cc3c2Cc2c(O)c(C)cc(C(C)=O)c2O)c1O	> 300	–
CC(=O)c1cc(C)c(O)c(Cc2[nH]c3cc(-c4cc(C(F)(F)F)cc(C(F)(F)F)c4)ccc3c2Cc2c(O)c(C)cc(C(C)=O)c2O)c1O	> 300	–
CC(=O)c1cc(C)c(O)c(Cc2[nH]c3cc(-c4ccccc4F)ccc3c2Cc2c(O)c(C)cc(C(C)=O)c2O)c1O	> 300	–
CC(=O)c1cc(C)c(O)c(Cc2[nH]c3cc(/C=C/c4ccccc4)ccc3c2Cc2c(O)c(C)cc(C(C)=O)c2O)c1O	> 300	–
